Measured values: patent US10426745B2, “Polymeric metformin and its use as a therapeutic agent and as a delivery vehicle” (The University of North Carolina at Chapel Hill, priority 2015, dated 2019)

Experiments:
[1] = system: LC3b; experiment: LC3b immunostaining of H460 tumors (autophagy); format: in vivo, mice; details: vs other groups
Description: (§1) FIG. 7A depicts Metformin and PolyMet inhibition of tumor growth by activation of AMPK, inhibiting the mTOR pathway; FIG. 7B depicts inducing autophagy and apoptosis mechanisms. Mice bearing H460 tumors were given IV injections every other day and analysis of tumor proteins was prepared 24 h after the second injection. Cells under autophagy were stained by LC3b antibody (red) and apoptosis of cells was indicated by TUNEL assay (green). Nuclei are stained blue. The percentage denotes the average percentage of LC3b positive cells (red) and the percentage of TUNEL positive cells (green), respectively. Five randomly selected microscopic fields were quantitatively analyzed on ImageJ. Data are mean±S.D. (n=5 per group).

[2] = system: mTOR; experiment: Western blot of tumor proteins: p-mTOR/mTOR; format: in vivo, mice; details: H460 tumors; compared to the PBS and LPH-PEI
Description: as §1
(§2) H460 tumor-bearing mice were given IV injections every second day and mice were sacrificed 24 hours after the third injection. Protein per lane was separated by 4%-12% SDS-PAGE electrophoresis (Invitrogen) before being transferred to polyvinylidene difluoride (PVDF) membranes (Bio-Rad). The membranes were blocked for 1 h with 5% non fat dry milk (Bio-Rad) at room temperature and then incubated with antibodies overnight at 4° C. The membranes were washed 3 times and then incubated with a secondary antibody (1:4,000 dilution; Cell signal Inc.) at room temperature for 1 h. […]

[3] = system: AMPKα; experiment: Western blot of tumor proteins: AMPKα phosphorylation; format: in vivo, mice; details: H460 tumors, IV every other day
Description: as §1, §2

[4] = system: H460 tumor cells; experiment: TUNEL assay of in vivo tumor cell apoptosis; design: species or system mice; details: H460 tumors after IV treatment
Description: as §1
FIG. 8 depicts in vitro and in vivo gene silencing effect of different LPH nanoparticles. […] Luciferase activities of cells were analyzed and normalized by protein. *p<0.05, **p<0.01, ***p<0.001. […] H460 tumor-bearing mice were injected intravenously every other day; FIG. 8B depicts tumor BCL2 protein levels after 2 injections were measured by western blot analysis; FIG. 8C depicts tumor volumes were measured every day; FIG. 8D depicts TUNEL staining in H460 tumor cells after treatment with siRNA in different formulations in vivo. […] Five randomly selected microscopic fields were quantitatively analyzed on ImageJ. […]

[5] = system: H460 tumor; experiment: H460 xenograft tumor growth / antitumor activity; format: in vivo, mice; details: vs PBS and LPH-PEI groups; IV 0.4 mg/kg body weight every other day
Description: FIG. 6A depicts Metformin and PolyMet inhibit H460 tumor growth. PBS, metformin, LPH-PEI and LPH-PolyMet were administered intravenously every other day, and mice were sacrificed 24 hours after the final injection. In FIG. 6A, tumor volumes were measured every day; FIG. 6B depicts tumor weights were measured on day after final injection and compared with body weights to determine percentage of tumor burden; FIG. 6C depicts visual observations of the H460 tumor sizes in each treatment group at the end time point; (n=5 per group).
Female nude female mice and female CD1 mice that were 6-8 weeks old were used in the studies. Female nude mice were purchased from National Cancer Institute (Bethesda, Md.) and bred by the Division of Laboratory Animal Medicine (DLAM) at University of North Carolina at Chapel Hill. CD1 mice were purchased from Charles River Laboratories (Morrisville, N.C.). To establish the xenograft models, 5×10^6 cells in 100 μL of PBS were injected subcutaneously into the right flank of the mice.
Human NSCLC cells xenografts were used as previously described. H460 human lung cancer cells ([…]) were subcutaneously injected into the right flanks of female athymic nu/nu mice. […] Animal weight and tumor volumes were measured every other day. […]

[6] = system: luciferase plasmid; experiment: pDNA transfection efficiency with luciferase plasmid; format: cell-based
Description: FIG. 10 depicts transfection efficiency of (A) L-PEI and L-PolyMet and (B) B-PEI and B-PolyMet at the indicated N/P ratios. Luciferase pDNA concentration was 0.5 μg/well in 96-well plate. Data are mean±S.D. (n=6 per group).

transfection efficiency [6] | Compound | LC3b-associated red fluorescence (autophagy) [1] | reduction in p-mTOR/mTOR levels [2] [fold] | phosphorylation level of AMPKα relative to PBS group [3] | percent of apoptotic (TUNEL-positive) cells [4] [%] | inhibition of cancer progression (tumor growth) [5]
 | CN(C)C(=N)NC(=N)N [Metformin, N,N-dimethylimidodicarbonimidic diamide] | higher | 2.3 | about 9 fold | 18.8 | significant inhibition
did not help | protamine |  |  |  |  | 
